Target: Lysine-specific histone demethylase 1A (Homo sapiens, UniProt O60341)
Assay: In Vitro Enzyme Inhibition Assay - LSD-1
Procedure: The enzymatic assay of LSD1 activity is based on Time Resolved-Fluorescence Resonance Energy Transfer (TR-FRET) detection. […] Plates were read by EnVision Multilabel Reader in TR-FRET mode (excitation at 320 nm, emission at 615 nm and 665 nm) after 1 hour incubation at room temperature.

IC50: < 100 nM
Structure (SMILES): COc1ccc(-c2c(-c3ccc(C#N)c(F)c3)cc(C(=O)N3CCC[C@@H](N)C3)n2CCCC(=O)O)cc1 [US10626103, Example 41]

From BindingDB's records for patent US10626103 (Celgene Quanticel Research, 2020)
